Assay [1] concerns the target DGKζ (Homo sapiens, UniProt Q13574). Description: In vitro DGKζ inhibition assay (ADP-Glo). In kind it is biochemical. Particulars: His-tagged human recombinant enzyme; 0.4 nM DGKζ, 30 μM ATP, 20 μM DLG; 90 minute incubation; ADP-Glo luminescence. As for the experimental part:
(§1) The DGKα and DGKζ biochemical reactions were performed using His-tagged human recombinant enzymes (Signal Chem, DGKα, #D21-10BH; DGKζ, #D30-10H)) and DLG (Dilauroyl-sn-glycerol) lipid substrate (Signal Chem, #D430-59). ADP-Glo assay was performed using ADP-Glo™ kinase Assay kit (Promega, #V9104). The reactions were carried out in assay buffer containing 40 mM Tris, pH 7.5, 0.1% CHAPS, 0.1% Prionex, 40 mM NaCl, 5 mM MgCl2, 1 mM CaCl2, and 1 mM DTT. DGKα reactions contained 0.1 nM DGKα, 50 μM ATP, and 20 μM DLG. And DGKζ reactions contained 0.4 nM DGKζ, 30 μM ATP, and 20 μM DLG. For compound inhibition studies, 40 nL test compound in DMSO was added to wells of white polystyrene plates in 384-well (Greiner, #784075) or 1536-well format (Greiner, #782075). Compounds were added with top concentration of 2 mM with 11 point, 3-fold dilution series. Enzyme solution (contains 2× DGK enzyme concentration in 1× assay buffer) was added to the plate in 2 μL/well volume, followed by 2 μL/well of substrate solution (contains 2× concentration of ATP and DLG substrate in 1× assay buffer). Plates were then centrifuged for 1 min at 1200 RPM and sealed or lidded. For 4 μL reaction volume, test compounds were therefore diluted 100× to final top concentration of 20 μM. After 90 minute incubation, reactions were quenched by addition of 2 μL/well Promega ADP-Glo Reagent, followed by centrifugation and lidding. After 60 min incubation, 2 μL/well Promega Kinase Detection Reagent was added, plates centrifuged, and incubated for 30 min. Plates were then read using Luminescence method on BMG PHERAstar FSX plate reader. Percent inhibition was calculated and IC50s were determined using 4-parameter fit in Genedata Screener. Labcyte Echo acoustic dispenser was used for compound addition, and Formulatrix Tempest liquid handler was used for all reagent dispenses.

Assay [2] addresses T1, DGKα (Homo sapiens, UniProt P23743).
T1 construct: His; purchased Signal Chem D21-10BH
The experiment in a line: In vitro DGKα inhibition assay (ADP-Glo). Format: biochemical. Particulars: His-tagged human recombinant enzyme; 0.1 nM DGKα, 50 μM ATP, 20 μM DLG; 90 minute incubation; ADP-Glo luminescence. As for the experimental part:
as §1

The source of these data is patent US20240217989A1, “Heteroaryl Fluoroalkenes As DGK Inhibitors” (Incyte Corporation, priority 2022, published 2024).

Some results are limits rather than exact numbers.

T1 sequence (P23743 whole entry): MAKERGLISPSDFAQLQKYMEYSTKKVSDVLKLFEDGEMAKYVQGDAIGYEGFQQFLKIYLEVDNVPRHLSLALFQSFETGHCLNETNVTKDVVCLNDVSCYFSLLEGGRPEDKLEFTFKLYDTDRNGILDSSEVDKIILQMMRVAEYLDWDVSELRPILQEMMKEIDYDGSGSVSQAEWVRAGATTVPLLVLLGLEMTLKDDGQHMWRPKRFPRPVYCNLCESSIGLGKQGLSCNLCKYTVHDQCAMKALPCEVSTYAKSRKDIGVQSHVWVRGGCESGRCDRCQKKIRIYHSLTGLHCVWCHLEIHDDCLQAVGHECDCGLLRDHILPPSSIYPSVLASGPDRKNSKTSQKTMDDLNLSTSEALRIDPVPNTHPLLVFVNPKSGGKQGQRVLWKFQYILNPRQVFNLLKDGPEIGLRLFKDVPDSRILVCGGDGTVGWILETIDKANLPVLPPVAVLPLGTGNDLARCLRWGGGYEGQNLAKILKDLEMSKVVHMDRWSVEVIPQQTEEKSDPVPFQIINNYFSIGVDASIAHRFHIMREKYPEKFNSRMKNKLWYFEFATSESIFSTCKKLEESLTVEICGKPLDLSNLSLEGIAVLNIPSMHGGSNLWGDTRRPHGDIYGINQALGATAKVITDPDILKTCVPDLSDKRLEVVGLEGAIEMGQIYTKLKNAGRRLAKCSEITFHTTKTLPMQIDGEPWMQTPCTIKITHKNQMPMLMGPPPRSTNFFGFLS
Chain of DGKζ (Q13574 whole entry): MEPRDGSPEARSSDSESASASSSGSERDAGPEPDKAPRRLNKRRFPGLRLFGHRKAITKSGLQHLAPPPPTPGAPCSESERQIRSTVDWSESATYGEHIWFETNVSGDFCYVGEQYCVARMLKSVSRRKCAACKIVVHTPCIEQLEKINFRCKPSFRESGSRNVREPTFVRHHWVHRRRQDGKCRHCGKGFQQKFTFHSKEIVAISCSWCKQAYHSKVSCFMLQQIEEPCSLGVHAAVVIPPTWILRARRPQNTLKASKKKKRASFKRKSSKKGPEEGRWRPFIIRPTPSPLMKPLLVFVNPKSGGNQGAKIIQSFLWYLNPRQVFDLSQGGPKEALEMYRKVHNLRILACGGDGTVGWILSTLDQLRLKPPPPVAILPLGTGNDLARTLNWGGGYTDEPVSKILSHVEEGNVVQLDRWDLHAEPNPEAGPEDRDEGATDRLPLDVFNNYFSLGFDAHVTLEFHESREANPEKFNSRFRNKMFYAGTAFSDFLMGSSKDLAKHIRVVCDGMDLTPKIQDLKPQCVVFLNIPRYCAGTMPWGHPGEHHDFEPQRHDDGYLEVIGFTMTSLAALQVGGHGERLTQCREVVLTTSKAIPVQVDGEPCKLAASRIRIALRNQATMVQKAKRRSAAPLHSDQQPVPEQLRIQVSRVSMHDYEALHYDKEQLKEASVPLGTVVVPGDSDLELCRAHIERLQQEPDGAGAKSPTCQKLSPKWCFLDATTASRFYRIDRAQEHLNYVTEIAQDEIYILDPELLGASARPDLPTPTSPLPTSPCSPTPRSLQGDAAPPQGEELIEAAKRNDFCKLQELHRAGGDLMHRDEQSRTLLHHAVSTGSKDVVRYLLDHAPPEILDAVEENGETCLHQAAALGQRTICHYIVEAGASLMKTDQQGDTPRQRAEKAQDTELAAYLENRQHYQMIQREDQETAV

On to `COCCN1CCC2(CC1)CN(c1c(/C=C(\F)c3cccc(-c4ccnnc4)n3)ccc(Oc3ccccc3)c1C(F)(F)F)CCO2` [Example 26, (Z)-4-(6-(2-Fluoro-2-(6-(pyridazin-4-yl)pyridin-2-yl)vinyl)-3-phenoxy-2-(trifluoromethyl)phenyl)-9-(2-methoxyethyl)-1-oxa-4,9-diazaspiro[5.5]undecane], for which the IC50 in assay [1] and in assay [2] was ≤ 20 nM in each case.

`F/C(=C\c1ccc(Oc2ccccc2)c(C(F)(F)F)c1N1CCOC2(CCN(CC3CC3)CC2)C1)c1cncc(-c2ccnnc2)n1` [Example 10, (Z)-9-(Cyclopropylmethyl)-4-(6-(2-fluoro-2-(6-(pyridazin-4-yl)pyrazin-2-yl)vinyl)-3-phenoxy-2-(trifluoromethyl)phenyl)-1-oxa-4,9-diazaspiro[5.5]undecane]: the IC50 in assay [1] and in assay [2] was ≤ 20 nM each time.

As to `F/C(=C\c1ccc(Oc2ccccc2)c(C(F)(F)F)c1N1CCCC2(CCN(CC3CC3)CC2)C1)c1cncc(-c2ccnnc2)n1` [Example 29, (Z)-9-(Cyclopropylmethyl)-2-(6-(2-fluoro-2-(6-(pyridazin-4-yl)pyrazin-2-yl)vinyl)-3-phenoxy-2-(trifluoromethyl)phenyl)-2,9-diazaspiro[5.5]undecane], the IC50 in assay [1] and in assay [2] was ≤ 20 nM each time.

For `[2H]c1c([2H])c([2H])c(Oc2ccc(/C=C(\F)c3cncc(N4CCC(F)(F)C4)n3)c(N3CCCC4(CCN(CC)CC4)C3)c2C(F)(F)F)c([2H])c1[2H]` [Example 22, (Z)-2-(6-(2-(6-(3,3-Difluoropyrrolidin-1-yl)pyrazin-2-yl)-2-fluorovinyl)-3-(phenoxy-d5)-2-(trifluoromethyl)phenyl)-9-ethyl-2,9-diazaspiro[5.5]undecane], the half-maximal inhibitory concentration (IC50) in assay [1] and in assay [2] was ≤ 20 nM throughout.

For the compound `CCN1CCC2(CCCN(c3c(/C=C(\F)c4nccc(-c5ccnnc5)n4)ccc(OC4CCCC4)c3C(F)(F)F)C2)CC1` [Example 53, (Z)-2-(3-(Cyclopentyloxy)-6-(2-fluoro-2-(4-(pyridazin-4-yl)pyrimidin-2-yl)vinyl)-2-(trifluoromethyl)phenyl)-9-ethyl-2,9-diazaspiro[5.5]undecane], the IC50 in assay [1] and in assay [2] was ≤ 20 nM each time.

For the compound `COc1cc(F)ccc1Oc1ccc(/C=C(\F)c2ccnc(-c3ccnnc3)n2)c(N2CCC[C@@H](CN)C2)c1Cl` [Example 7, (S,Z)-(1-(2-Chloro-6-(2-fluoro-2-(2-(pyridazin-4-yl)pyrimidin-4-yl)vinyl)-3-(4-fluoro-2-methoxyphenoxy)phenyl)piperidin-3-yl)methanamine], the IC50 in assay [1] and in assay [2] was ≤ 20 nM throughout.

Regarding `NC[C@@H]1CCCN(c2c(/C=C(\F)c3cn4ccnc4c(N4CC(F)(F)C4)n3)ccc(Oc3ccccc3F)c2C(F)(F)F)C1` [Example 2, (S,Z)-(1-(6-(2-(8-(3,3-Difluoroazetidin-1-yl)imidazo[1,2-a]pyrazin-6-yl)-2-fluorovinyl)-3-(2-fluorophenoxy)-2-(trifluoromethyl)phenyl)piperidin-3-yl)methanamine], the concentration for half-maximal inhibition (IC50) in assay [1] and in assay [2] was ≤ 20 nM throughout.

As to `NC[C@H]1CCCN1c1c(/C=C(\F)c2nccc(-c3ccnnc3)n2)ccc(Oc2ccccc2)c1Cl` [Example 13, (R,Z)-(1-(2-Chloro-6-(2-fluoro-2-(4-(pyridazin-4-yl)pyrimidin-2-yl)vinyl)-3-phenoxyphenyl)pyrrolidin-2-yl)methanamine], the IC50 in assay [1] and in assay [2] was ≤ 20 nM each time.

As for `[2H]c1c([2H])c([2H])c(Oc2ccc(/C=C(\F)c3cncc(N4CCC(F)(F)C4)n3)c(N3CCCC4(CCN(CC5CC5)CC4)C3)c2C(F)(F)F)c([2H])c1[2H]` [Example 21, (Z)-9-(Cyclopropylmethyl)-2-(6-(2-(6-(3,3-difluoropyrrolidin-1-yl)pyrazin-2-yl)-2-fluorovinyl)-3-(phenoxy-ds)-2-(trifluoromethyl)phenyl)-2,9-diazaspiro[5.5]undecane], the IC50 in assay [1] and in assay [2] was ≤ 20 nM each time.
